Source: ChEMBL document CHEMBL5528008, “Design and synthesis of the first PARP-1 and proteasome dual inhibitors to treat breast cancer” (Eur J Med Chem, 2024)
The source made the active and inactive calls. The calls are words filed in the database; no cut-off is given here.

Key:
BT-549 [1] = assay: Cytotoxicity against human BT-549 cells assessed as inhibition of cell growth incubated for 72 hrs by MTT assay; assay type: functional, cell-based; conditions: BT-549, 72 h
MCF7 [2] = assay: Cytotoxicity against human MCF7 cells assessed as inhibition of cell growth incubated for 72 hrs by MTT assay; assay type: functional, cell-based; conditions: MCF7, 72 h
MDA-MB-231 [3] = assay: Cytotoxicity against human MDA-MB-231 cells assessed as inhibition of cell growth incubated for 72 hrs by MTT assay; assay type: functional, cell-based; conditions: MDA-MB-231, 72 h
BT-549 [4] = assay: Induction of DNA damage in human BT-549 cells assessed as increase in gamma-H2AX localization in nucleus at 0.125 uM incubated for 48 hrs by fluorescence confocal microscopic analysis; assay type: functional, cell-based
BT-549 [5] = assay: Synergistic antiproliferative activity against human BT-549 cells assessed as synergistic score in presence of Olaparib; assay type: functional
[6] = target: T1, Poly [ADP-ribose] polymerase 1 (Homo sapiens, UniProt P09874); assay: Inhibition of PARP-1 (unknown origin) using Femto-ECL as substrate preincubated for 2.7 hrs followed by substrate addition by chemiluminescence assay
T1 sequence (P09874 whole entry): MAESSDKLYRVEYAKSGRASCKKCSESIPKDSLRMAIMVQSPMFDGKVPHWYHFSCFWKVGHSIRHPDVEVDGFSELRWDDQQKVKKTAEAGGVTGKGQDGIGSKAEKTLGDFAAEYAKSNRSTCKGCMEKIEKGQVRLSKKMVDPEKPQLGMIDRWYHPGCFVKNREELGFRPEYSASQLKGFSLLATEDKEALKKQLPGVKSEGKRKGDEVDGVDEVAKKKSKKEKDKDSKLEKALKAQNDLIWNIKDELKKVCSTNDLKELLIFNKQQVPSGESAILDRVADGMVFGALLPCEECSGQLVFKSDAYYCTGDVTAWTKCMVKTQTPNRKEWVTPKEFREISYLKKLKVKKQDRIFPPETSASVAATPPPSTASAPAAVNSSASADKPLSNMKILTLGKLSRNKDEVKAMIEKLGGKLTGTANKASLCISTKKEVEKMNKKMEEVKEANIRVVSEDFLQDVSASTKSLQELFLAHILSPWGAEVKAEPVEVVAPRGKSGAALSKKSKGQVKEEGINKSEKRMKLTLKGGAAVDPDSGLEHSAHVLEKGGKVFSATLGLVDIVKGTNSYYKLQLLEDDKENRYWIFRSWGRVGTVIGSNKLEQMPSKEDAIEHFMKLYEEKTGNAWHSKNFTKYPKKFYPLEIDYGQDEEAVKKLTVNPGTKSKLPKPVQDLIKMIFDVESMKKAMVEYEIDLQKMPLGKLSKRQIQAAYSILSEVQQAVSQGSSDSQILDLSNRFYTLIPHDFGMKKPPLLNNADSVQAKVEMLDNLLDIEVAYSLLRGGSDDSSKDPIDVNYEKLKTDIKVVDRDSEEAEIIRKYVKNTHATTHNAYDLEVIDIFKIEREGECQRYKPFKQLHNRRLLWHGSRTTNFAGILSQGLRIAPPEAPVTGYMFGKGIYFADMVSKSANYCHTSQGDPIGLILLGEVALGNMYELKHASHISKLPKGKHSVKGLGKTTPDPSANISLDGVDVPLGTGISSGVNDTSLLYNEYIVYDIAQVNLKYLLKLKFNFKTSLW

20S proteasome = assay: Inhibition of 20S proteasome (unknown origin) using […] as substrate; assay type: protein-complex assay, Homo sapiens
[7] = Antiproliferative activity against human COV362 cells assessed as fold change in inhibition of cell growth at 0.3 to 1.2 uM incubated for 72 hrs by MTT assay; assay type: functional; conditions: dose 0.3-1.2 µM
ES-2 = assay: Antiproliferative activity against human ES2 cells assessed as fold change in inhibition of cell growth at 0.3 to 1.2 uM incubated for 72 hrs by MTT assay; assay type: functional; conditions: dose 0.3-1.2 µM
HEY = assay: Antiproliferative activity against human HEY cells assessed as fold change in inhibition of cell growth at 0.3 to 1.2 uM incubated for 72 hrs by MTT assay; assay type: functional; conditions: dose 0.3-1.2 µM
SK-OV-3 = assay: Antiproliferative activity against human SK-OV-3 cells assessed as fold change in inhibition of cell growth at 0.3 to 1.2 uM incubated for 72 hrs by MTT assay; assay type: functional; conditions: dose 0.3-1.2 µM
NCI-H1299 = assay: Antiproliferative activity against human NCI-H1299 cells assessed as fold change in inhibition of cell growth at 0.3 to 1.2 uM incubated for 72 hrs by MTT assay; assay type: functional; conditions: dose 0.3-1.2 µM
A549 = assay: Antiproliferative activity against human A549 cells assessed as fold change in inhibition of cell growth at 0.3 to 1.2 uM incubated for 72 hrs by MTT assay; assay type: functional; conditions: dose 0.3-1.2 µM
PC-3 = assay: Antiproliferative activity against human PC-3 cells assessed as fold change in inhibition of cell growth at 0.3 to 1.2 uM incubated for 72 hrs by MTT assay; assay type: functional; conditions: dose 0.3-1.2 µM
BT-549 [8] = assay: Antiproliferative activity against human BT-549 cells assessed as fold change in inhibition of cell growth at 0.3 to 1.2 uM incubated for 72 hrs by MTT assay; assay type: functional; conditions: dose 0.3-1.2 µM
MCF7 [9] = assay: Antiproliferative activity against human MCF7 cells assessed as fold change in inhibition of cell growth at 0.3 to 1.2 uM incubated for 72 hrs by MTT assay; assay type: functional; conditions: dose 0.3-1.2 µM
MDA-MB-231 [10] = assay: Antiproliferative activity against human MDA-MB-231 cells assessed as fold change in inhibition of cell growth at 0.3 to 1.2 uM incubated for 72 hrs by MTT assay; assay type: functional; conditions: dose 0.3-1.2 µM
[11] = target: T1, Poly [ADP-ribose] polymerase 1; assay: Inhibition of PARP-1 in human BT-549 cells assessed as downregulation of FANCD2 mRNA expression incubated for 48 hrs by RT-qPCR analysis; assay type: cell-based
[12] = target: T1, Poly [ADP-ribose] polymerase 1; assay: Inhibition of PARP-1 in human BT-549 cells assessed as downregulation of BRCA1 mRNA expression incubated for 48 hrs by RT-qPCR analysis; assay type: cell-based
[13] = target: T1, Poly [ADP-ribose] polymerase 1; assay: Inhibition of PARP-1 in human BT-549 cells assessed as downregulation of BRCA2 mRNA expression incubated for 48 hrs by RT-qPCR analysis; assay type: cell-based
[14] = target: T1, Poly [ADP-ribose] polymerase 1; assay: Inhibition of PARP-1 in human BT-549 cells assessed as downregulation of RAD51 mRNA expression incubated for 48 hrs by RT-qPCR analysis; assay type: cell-based
BT-549 [15] = assay: Induction of DNA damage in human BT-549 cells assessed as upregulation of gamma-H2AX level at 0.05 uM incubated for 48 hrs by immunoblotting analysis; assay type: functional, cell-based
BT-549 [16] = assay: Induction of DNA damage in human BT-549 cells assessed as upregulation of gamma-H2AX level at 0.5 uM incubated for 48 hrs by immunoblotting analysis; assay type: functional, cell-based
[17] = target: T1, Poly [ADP-ribose] polymerase 1; assay: Inhibition of PARP-1 in human BT-549 cells assessed as downregulation of P-ATM expression at 0.05 uM incubated for 48 hrs by immunoblotting analysis; assay type: cell-based
[18] = target: T1, Poly [ADP-ribose] polymerase 1; assay: Inhibition of PARP-1 in human BT-549 cells assessed as downregulation of BRCA1 expression at 0.05 uM incubated for 48 hrs by immunoblotting analysis; assay type: cell-based
[19] = target: T1, Poly [ADP-ribose] polymerase 1; assay: Inhibition of PARP-1 in human BT-549 cells assessed as downregulation of RAD51 expression at 0.05 uM incubated for 48 hrs by immunoblotting analysis; assay type: cell-based
[20] = target: T1, Poly [ADP-ribose] polymerase 1; assay: Inhibition of PARP-1 in human BT-549 cells assessed as downregulation of P-ATM expression at 0.5 uM incubated for 48 hrs by immunoblotting analysis; assay type: cell-based
[21] = target: T1, Poly [ADP-ribose] polymerase 1; assay: Inhibition of PARP-1 in human BT-549 cells assessed as downregulation of BRCA1 expression at 0.5 uM incubated for 48 hrs by immunoblotting analysis; assay type: cell-based
[22] = target: T1, Poly [ADP-ribose] polymerase 1; assay: Inhibition of PARP-1 in human BT-549 cells assessed as downregulation of RAD51 expression at 0.5 uM incubated for 48 hrs by immunoblotting analysis; assay type: cell-based
BT-549 [23] = assay: Induction of DNA damage in human BT-549 cells assessed as decrease in BRCA1 localization in nucleus at 0.125 uM incubated for 48 hrs by fluorescence confocal microscopic analysis; assay type: functional, cell-based
BT-549 [24] = assay: Induction of DNA damage in human BT-549 cells assessed as decrease in ubiquitin localization in nucleus at 0.125 uM incubated for 48 hrs by fluorescence confocal microscopic analysis; assay type: functional, cell-based
BT-549 [25] = assay: Induction of DNA damage in human BT-549 cells assessed as increase in polyubiquitination at 0.125 uM incubated for 48 hrs by fluorescence confocal microscopic analysis; assay type: functional, cell-based
BT-549 [26] = assay: Induction of DNA damage in human BT-549 cells assessed as decrease in polyubiquitination in nucleus at 0.125 uM incubated for 48 hrs by fluorescence confocal microscopic analysis; assay type: functional, cell-based
BT-549 [27] = assay: Induction in cell cycle arrest in human BT-549 cells assessed as downregulation of Cyclin A2 expression at 0.05 uM incubated for 48 hrs by Western blotting analysis; assay type: functional, cell-based
BT-549 [28] = assay: Induction in cell cycle arrest in human BT-549 cells assessed as downregulation of Cyclin A2 expression at 0.5 uM incubated for 48 hrs by Western blotting analysis; assay type: functional, cell-based
BT-549 [29] = assay: Induction in cell cycle arrest in human BT-549 cells assessed as downregulation of CDK1 expression at 0.05 uM incubated for 48 hrs by Western blotting analysis; assay type: functional, cell-based
BT-549 [30] = assay: Induction in cell cycle arrest in human BT-549 cells assessed as downregulation of CDK1 expression at 0.5 uM incubated for 48 hrs by Western blotting analysis; assay type: functional, cell-based
BT-549 [31] = assay: Induction in cell cycle arrest in human BT-549 cells assessed as upregulation of p21 expression at 0.05 uM incubated for 48 hrs by Western blotting analysis; assay type: functional, cell-based
BT-549 [32] = assay: Induction in cell cycle arrest in human BT-549 cells assessed as upregulation of p21 expression at 0.5 uM incubated for 48 hrs by Western blotting analysis; assay type: functional, cell-based
BT-549 [33] = assay: Induction of apoptosis in human BT-549 cells assessed as upregulation of cleaved caspase-3 expression incubated for 48 hrs by Western blotting analysis; assay type: functional, cell-based
BT-549 [34] = assay: Induction of apoptosis in human BT-549 cells assessed as upregulation of cleaved PARP expression incubated for 48 hrs by Western blotting analysis; assay type: functional, cell-based
BT-549 [35] = assay: Induction of apoptosis in human BT-549 cells assessed as increase in early apoptotic cells incubated for 48 hrs by Annexin V-FITC/PI staining based flow cytometric analysis; assay type: functional, cell-based
BT-549 [36] = assay: Induction of apoptosis in human BT-549 cells assessed as increase in late apoptotic cells incubated for 48 hrs by Annexin V-FITC/PI staining based flow cytometric analysis; assay type: functional, cell-based
BT-549 [37] = assay: Inhibition of colony formation in human BT-549 cells assessed as reduction in colony number incubated for 14 days by crystal violet staining based analysis; assay type: functional, cell-based; conditions: time 14.0 day
BT-549 [38] = assay: Inhibition of colony formation in human BT-549 cells assessed as reduction in colony size incubated for 14 days by crystal violet staining based analysis; assay type: functional, cell-based; conditions: time 14.0 day

SMILES: CC(C)C[C@H](NC(=O)CNC(=O)c1cc(Cl)ccc1Cl)B(O)O [IXAZOMIB]
- IC50 (BT-549 [1]): 227 nM
- IC50 (MCF7 [2]): 135 nM
- IC50 (MDA-MB-231 [3]): 42.6 nM
- Activity (BT-549 [4]): inactive
- Activity (BT-549 [5]): 12.191

SMILES: CC(C)C[C@H](NC(=O)[C@H](CC(C)C)NC(=O)c1cc(Cc2n[nH]c(=O)c3ccccc23)ccc1F)B1O[C@@H]2C[C@@H]3C[C@@H](C3(C)C)[C@]2(C)O1
- IC50 [6]: 137 nM
- IC50 (20S proteasome): 60.9 nM
- IC50 (BT-549 [1]): 17.8 nM
- IC50 (MCF7 [2]): 49.5 nM
- IC50 (MDA-MB-231 [3]): 31.2 nM
- fold change (FC) [7]: 1
- fold change (FC) (ES-2): 1
- fold change (FC) (HEY): 1
- fold change (FC) (SK-OV-3): 1
- fold change (FC) (NCI-H1299): 1
- fold change (FC) (A549): 1
- fold change (FC) (PC-3): 1
- fold change (FC) (BT-549 [8]): 10
- fold change (FC) (MCF7 [9]): 10
- fold change (FC) (MDA-MB-231 [10]): 10
- inhibition [11]: Dose-Dependent Effect
- inhibition [12]: Dose-Dependent Effect
- inhibition [13]: Dose-Dependent Effect
- inhibition [14]: Dose-Dependent Effect
- Activity (BT-549 [15]): Active
- Activity (BT-549 [16]): Active
- inhibition [17]: Active
- inhibition [18]: Active
- inhibition [19]: Active
- inhibition [20]: Active
- inhibition [21]: Active
- inhibition [22]: Active
- Activity (BT-549 [4]): Active
- Activity (BT-549 [23]): Active
- Activity (BT-549 [24]): Active
- Activity (BT-549 [25]): Active
- Activity (BT-549 [26]): Active
- Activity (BT-549 [27]): Active
- Activity (BT-549 [28]): Active
- Activity (BT-549 [29]): Active
- Activity (BT-549 [30]): Active
- Activity (BT-549 [31]): Active
- Activity (BT-549 [32]): Active
- Activity (BT-549 [33]): Dose-Dependent Effect
- Activity (BT-549 [34]): Dose-Dependent Effect
- Activity (BT-549 [35]): Dose-Dependent Effect
- Activity (BT-549 [36]): Dose-Dependent Effect
- inhibition (BT-549 [37]): Dose-Dependent Effect
- inhibition (BT-549 [38]): Dose-Dependent Effect
